Test: Human HepG2 cell viability assay in 384 well format
Type: toxicity, cell-based
Parameters: dose 125 nL, time 70.5 hour; concentration not given beside the values
Settings: HepG2 cells, read-out: Inhibition

| Structure (SMILES) | cytotoxicity at 70.5 h [%] |
| --- | --- |
| Cc1nccn1-c1ccc(=O)n(CCNC(=O)c2ccncc2)n1 | -7.2 |
| O=c1ccc(-n2ccnc2)nn1CCNS(=O)(=O)c1ccc(Br)cc1 | 15.1 |
| O=c1ccc(-n2ccnc2)nn1CCNS(=O)(=O)c1ccc(F)c(Cl)c1 | -1.07 |
| Cn1nnn(-c2ccc(NS(=O)(=O)c3ccc(Br)cc3)cc2)c1=O | -2.26 |
| O=C(c1nnn(-c2ccc(F)cc2)n1)N(CCO)Cc1ccccc1 | -1.48 |
| CC1CCCN(C(=O)c2nnn(-c3ccc(C(F)(F)F)cc3)n2)C1 (configuration not stated) | 1.4 |
| O=C(c1nnn(-c2ccc(C(F)(F)F)cc2)n1)N1CCC(O)CC1 | -2.52 |
| O=C1CN(C(=O)c2nnn(-c3ccc(C(F)(F)F)cc3)n2)CCN1 | -14.4 |
| COCCNC(=O)NC1(c2nc(C)no2)CCCCC1 | -0.559 |
| COc1cccc(CNC(=O)NC2(c3nc(C)no3)CCCCC2)c1 | 13.3 |
| COCCCC1(CO)CCCN(CCc2ccccc2)C1 (configuration not stated) | -1.1 |
| CNC(=O)C(C)(C)NC(=O)c1cc(OCC2CCC2)cc(C(=O)OC)c1 | -1.19 |
| CC(C)n1ccnc1C1CCCN(c2ccnc3ccccc23)C1 (configuration not stated) | -0.236 |
| Cc1ccc(Cl)cc1C(=O)N1CCC2(CC1)c1ccccc1[C@@H](N)[C@@H]2O | 15.9 |
| O=C(Cc1ccc(O)c(Cl)c1)N1CCN(CC2CC2)[C@@H]2CS(=O)(=O)C[C@@H]21 | 17.4 |
| Cc1ccc([C@@H]2CN(C(=O)c3ccc[nH]3)C[C@H]2NC(=O)C2CC2)cc1 | -8.09 |
| Cc1ccccc1[C@@H]1CN(C(=O)c2ccc3[nH]nnc3c2)C[C@H]1C(=O)O | -4.82 |
| CN(C)Cc1nnc(C2CCN(c3nccc(N)n3)CC2)n1C1CC1 | 2.16 |
| Cn1c(Cn2cccn2)nnc1C1CCCN(c2ccncc2)C1 (configuration not stated) | -8.1 |
| N#Cc1cccc(S(=O)(=O)N2CCCCC2CCN2CCCC2=O)c1 (configuration not stated) | -2.56 |
| Cc1nc(C(=O)N2CCc3c(nc(-c4ccncc4)[nH]c3=O)C2)cs1 | -8.1 |
| CCc1csc(CCNC(=O)C2CC(=O)N(C(C)C)C2)n1 (configuration not stated) | 4.82 |
| COCCc1noc(CNC2CCSC2)n1 (configuration not stated) | -10.2 |

| Structure (SMILES) | cytotoxicity at 70.5 h [%] |
| --- | --- |
| COc1cccc(F)c1C(=O)N1C[C@@H](CN(C)CCO)[C@@H](CO)C1 | -8.49 |
| Cc1cncc(C(=O)N2CCCC(C(=O)CCc3ccccc3)C2)c1 (configuration not stated) | -5.02 |
| O=S1(=O)C[C@@H]2[C@H](C1)N(Cc1ncc[nH]1)CCN2CC1CC1 | -5.56 |
| O=C(c1ccccn1)N1C[C@@H]2CC[C@H](C1)N(C(=O)CCc1cccs1)C2 | -5.4 |
| CC(C)NC(=O)[C@@H]1C[C@H](N)CN1C(=O)c1cc2c([nH]c1=O)CCCC2 | -7.39 |
| CCC(O)CNC(=O)C1(N(C)Cc2ccccc2)Cc2ccccc2C1 (configuration not stated) | -3.52 |
| CC(C)N1CCC(NCc2cccnc2N(C)Cc2ccccc2)CC1 | -5.38 |
| Cc1ncccc1OC1(C(=O)NCCCN2CCOCC2)CCNCC1 | -11.7 |
| CC(C)c1nc(N2CCN3CCCC3C2)c2cnn(C)c2n1 (configuration not stated) | 1.45 |
| CCCS(=O)(=O)N1C[C@H]2OC(=O)N(CCc3cccc(Cl)c3)[C@H]2C1 | -4.21 |
| COc1cccc2c1OCC(CNC(=O)CCCN1CCOCC1)C2 (configuration not stated) | -7.84 |
| Cc1ccc(F)c(OC2(C(=O)O)CCN(C(=O)N3CCCC3)CC2)c1 | -9.12 |
| Cc1ccc(C(NC(=O)[C@H]2CC[C@@H](O)CC2)c2cccnc2)cc1C (some centres not stated) | -6.91 |
| Cc1ncnc(NCc2cc3n(n2)CCCN(S(C)(=O)=O)C3)c1C | -12.3 |
| O=C(CSc1ccccn1)N1C[C@H]2CC[C@@H]1CN(Cc1cscn1)C2 | -8.62 |
| CC(=O)c1cc(CC(=O)NCc2ccc(F)cc2)cs1 | -1.82 |
| CCN(C)Cc1cnc(S(=O)(=O)CC)n1CCOC | -3.96 |
| COC[C@@]12CC[C@@H](N3CCOCC3)C[C@H]1CCN(c1ncccc1Cl)C2 | -4.77 |
| CN(C)C(=O)c1ccc2c(c1)N(C)C(CC(=O)NC(C)(C)CO)CO2 (configuration not stated) | 18.8 |
| Cc1ccccc1C1CCCN1C(=O)CN1CC2(CCNCC2)OC1=O (configuration not stated) | -4.74 |
| Cc1cc(N2CCN(Cc3ccccc3)CC(O)C2)cc(C)n1 (configuration not stated) | 11.5 |
| COc1ccc(C(=O)N2CC[C@H](CO)[C@H](O)C2)c(C)c1 | -4.34 |
| CSc1ncccc1C(=O)N1C[C@H]2CC[C@@H]1CN(c1ncccn1)C2 | -10.3 |

| Structure (SMILES) | cytotoxicity at 70.5 h [%] |
| --- | --- |
| O=C1CC(NCc2ccncc2)CN1Cc1cccc(F)c1 (configuration not stated) | 1.94 |
| CCN1CC2(CCC1=O)CCN(C(=O)c1ccc(Cl)cc1O)CC2 | -2.93 |
| CCCS(=O)(=O)NCC1CCOc2ccccc2C1 (configuration not stated) | -1.69 |
| O=C(Nc1nncs1)NC1CCN(Cc2ccccc2)C1 (configuration not stated) | -5.56 |
| CN(C)c1cc(C(=O)N2CCCC2)ccn1 | -10 |
| Cc1nccn1C1CCCN(C(=O)CCOCC(F)(F)F)C1 (configuration not stated) | 17.2 |
| Cc1cc(CN2CCC(N(C)Cc3noc(C4CC4)n3)C2)on1 (configuration not stated) | 19.5 |
| Cn1cnc2c1CCN(Cc1cccc(C(=O)N3CCCCC3)c1)C2 | -7.19 |
| COc1cc(C)nc(N2CCN(C(=O)COCC3CC3)CC2)n1 | -3.61 |
| O=C1C(NCc2nnc3n2CCCC3)CCN1c1ccccc1F (configuration not stated) | -20.6 |
| Cc1ccc(-c2cc(C(=O)NCCN3CCCS3(=O)=O)[nH]n2)cc1 | 11.7 |
| COc1ccnc(N2CCN(C(=O)COCC(F)(F)F)CC2)n1 | 13 |
| CC(O)CN1CCC(CNCc2ccccc2Cl)CC1 (configuration not stated) | -7.56 |
| CC(C)CNC(=O)c1cccc(CN2CCc3c(ncn3C)C2)c1 | -13.6 |
| CCn1ccnc1CN1CCN(CC(O)c2ccc(OC)cc2)CC1 (configuration not stated) | 12.3 |
| Cn1nc2c(cc1=O)CN(Cc1nc(-c3ccccn3)no1)CC2 | -9 |
| Cc1ccc(N2CCCC(NCc3nnc4n3CCCC4)C2=O)cc1 (configuration not stated) | -10.2 |
| CCn1nc2c(cc1=O)CN(Cc1nc(-c3cccnc3)no1)CC2 | -14.4 |
| O=C(NCc1nn(-c2ccccc2)c2c1CCC2)NC1CCOCC1 | -0.276 |
| CNC(=O)NCc1nn(-c2ccccc2)c2c1CCC2 | -4.98 |
| CN(Cc1noc(C2CC2)n1)C1CCN(Cc2ncc[nH]2)C1 (configuration not stated) | 12.2 |
| CCc1cc(CNC(=O)N2CCC(Cc3cnn(C)c3)C2)on1 (configuration not stated) | -4.1 |
| Cc1occc1CNC(=O)N1CCC(Cc2cnn(C)c2)C1 (configuration not stated) | -2.55 |

| Structure (SMILES) | cytotoxicity at 70.5 h [%] |
| --- | --- |
| Cn1cc(CC2CCN(C(=O)NCc3cccc(C#N)c3)C2)cn1 (configuration not stated) | -5 |
| COc1ccccc1CC(=O)N1CCCC(CNS(C)(=O)=O)C1 (configuration not stated) | -9.26 |
| CS(=O)(=O)NCC1CCCN(C(=O)CCCc2ccccc2)C1 (configuration not stated) | -8.93 |
| Cc1nccn1C1CCCN(C(=O)COC2CCCC2)C1 (configuration not stated) | -4.55 |
| Cc1nccn1C1CCCN(C(=O)COCC2CC2)C1 (configuration not stated) | -6.29 |
| Cc1cnn(CC2CCCN2Cc2cc(C)no2)c1 (configuration not stated) | -14 |
| CCc1ocnc1C(=O)N1CCCC1c1noc(C2CC2)n1 (configuration not stated) | -9.72 |
| CN(Cc1noc(C2CC2)n1)C1CCN(Cc2ccc(F)c(F)c2)C1 (configuration not stated) | -8.17 |
| O=C(COCC(F)(F)F)N1CCCC(n2cccn2)C1 (configuration not stated) | -8.85 |
| CNc1cc(N2CCCC2CNCc2csc(C(C)C)n2)ncn1 (configuration not stated) | 28.6 |
| CCn1ccnc1CN1CCCN(C(=O)c2cnn(C)c2)CC1 | -7.1 |
| CC(C(=O)N1CCCN(Cc2cscn2)CC1)N1CCOCC1 (configuration not stated) | -8.05 |
| CN1CCN(c2cc(CNC(=O)c3cnccn3)ccn2)CC1 | -3.35 |
| Cc1cc(C(=O)NCc2ccnc(N3CCOCC3)c2)c(C)s1 | -13.9 |
| CN1CCN(c2cc(CNC(=O)c3ccsc3)ccn2)CC1 | 1 |
| CC(Cc1ccco1)NC(=O)Nc1ccc(N2CCCC2)nc1 (configuration not stated) | -7.87 |
| NC(=O)Cn1cc(NC(=O)N2CCC(c3ccccc3)CC2)cn1 | -5.24 |
| CC(CO)NC(=O)Nc1ccc(S(C)(=O)=O)nc1 (configuration not stated) | -2.27 |
| Cc1noc(C2CCCN(C(=O)c3ccc(N(C)C)nc3)C2)n1 (configuration not stated) | -8.13 |
| Cc1nc(CN2CCN(C(C)c3nc(C4CC4)no3)CC2)oc1C (configuration not stated) | -3.6 |
| Cc1noc(C2CCN(C(=O)Nc3ccc(N(C)C)nc3)CC2)n1 | 1.32 |
| CCn1ccnc1CN1CCCN(C(=O)c2csc(C)n2)CC1 | -5.02 |
| Cc1ncc(Cl)c(C(=O)N2CCCC(n3nc(C)nc3C)C2)n1 (configuration not stated) | -6.14 |

| Structure (SMILES) | cytotoxicity at 70.5 h [%] |
| --- | --- |
| CC(C)(C)c1n[nH]c(C2CN(C(=O)CCc3ccco3)CCO2)n1 (configuration not stated) | 1.28 |
| CCn1ccnc1CN1CCCN(C(=O)c2ccsc2)CC1 | -2.37 |
| O=C(c1ccc(N2CCOCC2)cc1)N1CCCC(n2ccnc2)C1 (configuration not stated) | 20.8 |
| Cc1nc(C)n(CC2CCCN(CC(=O)Nc3ccncc3)C2)n1 (configuration not stated) | -5.01 |
| Cc1nc(C)n(CC2CN(Cc3cscn3)CCO2)n1 (configuration not stated) | -6.91 |
| O=C(c1cccc2ncccc12)N1CCCC(n2ccnc2)C1 (configuration not stated) | -2.04 |
| CC(C)Cc1noc(CN2CCN(S(C)(=O)=O)CC2)n1 | -7.6 |
| O=C(NCc1ccoc1)Nc1cc(C(F)(F)F)c[nH]c1=O | 1.11 |
| COCc1cccc(CNCc2c(C(C)C)nn(C)c2N(C)C)c1 | -7.7 |
| Cc1cc(C)c(CNC(=O)CCC2CCCO2)c(=O)[nH]1 (configuration not stated) | -6.31 |
| Cc1cc(C)n(CC2CN(Cc3cc(C)on3)CCO2)n1 (configuration not stated) | -3.83 |
| Cn1cc(CCNCc2cc(Br)c3c(c2)OCO3)cn1 | 23.7 |
| Cc1nnc2n1CCN(C(=O)c1cc(Br)c(Cl)[nH]1)C2 | -1.01 |
| CC(C)c1nnc2n1CCN(C(=O)c1cc(Cl)c[nH]1)C2 | 0.408 |
| CNc1snc(C)c1C(=O)N1CCC(Nc2ccc(C)nn2)CC1 | -3.58 |
| Cn1nccc1C(=O)Nc1cc(C(F)(F)F)c[nH]c1=O | -6.13 |
| O=C(COc1ccc2c(c1)CCC2)NS(=O)(=O)c1cccnc1 | -10.3 |
| COc1cccc(OCC(=O)NS(=O)(=O)c2cccnc2)c1 | -3.41 |
| Cc1nc(C)n(CC2CCCCN2CC(=O)Nc2c(C)n[nH]c2C)n1 (configuration not stated) | -1.79 |
| CCCc1noc(CN2CCN(CCO)CC2)n1 | -1.1 |

From ChEMBL document CHEMBL3507680, “University of Dundee, Gates Library screen for HepG2 cell viability”
